Measured values taken from PubChem BioAssay (NCI).
Several values for one entry are separate records, joined by “and”; a condition that tells them apart may be missing. Identical values can stand only once.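 1) Cells in 96-well plates. 2) Compound, 48 h, 5 concentrations. 3) Linear interpolation between surrounding doses. 4) Unreached endpoint = highest concentration. GI50: concentration for 50% inhibition of growth. TGI marks complete inhibition of growth.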

Legend:
Assay in all cases: NCI-60 cell line screen, 48 h
HCT-116 colon = system: HCT-116 colon
HOP-62 NSCLC = system: HOP-62 NSCLC
M14 melanoma = system: M14 melanoma
NCI-H226 lung = system: NCI-H226 lung
OVCAR-4 ovarian = system: OVCAR-4 ovarian
SF-539 CNS = system: SF-539 CNS
SK-MEL-28 melanoma = system: SK-MEL-28 melanoma
SNB-19 CNS = system: SNB-19 CNS
EKVX NSCLC = system: EKVX NSCLC
UACC-62 melanoma = system: UACC-62 melanoma

| SMILES | GI50 (HCT-116 colon) | TGI (HCT-116 colon) | GI50 (HOP-62 NSCLC) | TGI (HOP-62 NSCLC) | GI50 (M14 melanoma) | TGI (M14 melanoma) | GI50 (NCI-H226 lung) | TGI (NCI-H226 lung) | GI50 (OVCAR-4 ovarian) | TGI (OVCAR-4 ovarian) | GI50 (SF-539 CNS) | TGI (SF-539 CNS) | GI50 (SK-MEL-28 melanoma) | TGI (SK-MEL-28 melanoma) | GI50 (SNB-19 CNS) | TGI (SNB-19 CNS) | TGI (EKVX NSCLC) | TGI (UACC-62 melanoma) | GI50 (EKVX NSCLC) | GI50 (UACC-62 melanoma) |
| --- | --- | --- | --- | --- | --- | --- | --- | --- | --- | --- | --- | --- | --- | --- | --- | --- | --- | --- | --- | --- |
| CCN(C(=O)CCl)C(C)(C)C(SSSC(c1ccc(Cl)cc1)C(C)(C)N(CC)C(=O)CCl)c1ccc(Cl)cc1 (stereo not drawn) | 4.47 µM | 18.5 µM | 8.33 µM | 23.4 µM | 1.91 µM | 3.65 µM | 15 µM | 33.4 µM | 5.04 µM | 19.6 µM | 3.14 µM | 10.9 µM | 2.05 µM | 4.31 µM | 13.9 µM | 30.3 µM |  |  |  |  |
| O=C1[C@@H]2C3SC(c4ccccc43)[C@@H]2C(=O)N1c1ccccc1 |  | > 100 µM |  | > 100 µM |  | > 100 µM |  | > 100 µM |  |  |  | > 100 µM |  | > 100 µM |  | > 100 µM | > 100 µM | > 100 µM |  |  |
| COc1cc2ccnc3c2c(c1OC)-c1ccc(=O)ccc1-3 | 5.25 µM | 34.5 µM | 32.5 µM | > 100 µM |  |  | 17.7 µM | 45.8 µM | 21.7 µM | 74.7 µM | 15.9 µM | 77.3 µM | 23.7 µM | 66.9 µM | 55.3 µM | > 100 µM | 99 µM | 34 µM | 29.8 µM | 14.6 µM |
| Nc1ccc2c(c1)CC1c3ccccc3C(C2)c2ccccc21 |  | > 100 µM |  | > 100 µM |  | > 100 µM |  |  |  | > 100 µM |  | > 100 µM |  |  |  | > 100 µM |  | > 100 µM |  |  |
| Nc1c(C(=O)c2cccc(C#CCN3CCOCC3)c2)cnn1-c1ccc(F)cc1 | > 22.8 µM | > 25 µM | > 25 µM | > 25 µM | > 25 µM | > 25 µM | > 20.4 µM | > 25 µM | > 25 µM | > 25 µM | > 25 µM | > 25 µM | > 25 µM | > 25 µM | > 25 µM | > 25 µM |  | > 25 µM |  | 19.6 µM |
| C[C@]12CCC3c4ccc(O)cc4CCC3C1Cc1ccc(O)cc12 (stereo partly drawn) | 3.52 µM | 13.2 µM |  |  | 3.8 µM | 13.6 µM | 19 µM | 36.6 µM | 15.3 µM | 92.7 µM | 6.08 µM | 20.8 µM | 8.72 µM | 22.7 µM | 10.6 µM | 22.7 µM | 18.9 µM | 17.1 µM | 6.24 µM | 5.25 µM |
| Nc1nc(N)c(N=O)c(Nc2ccc(I)cc2)n1 |  | 43.5 µM |  | 51.1 µM |  | 56.6 µM |  |  |  |  |  | 70.4 µM |  | 52.3 µM |  | > 100 µM | > 100 µM | 37.9 µM |  |  |
| O=C(NNc1ccccc1)OCc1ccccc1 | 12.4 µM | > 100 µM | 84.5 µM | > 100 µM | 2.81 µM | 60.6 µM |  |  | 18.6 µM | > 100 µM | 2.91 µM | 10.3 µM | 98.3 µM | > 100 µM | 63.9 µM | > 100 µM |  | 8.43 µM |  | 0.462 µM |
| COc1cc2c(c(OC)c1OC)-c1ccc(SC)c(=O)cc1[C@@H](NCc1cccc(C#N)c1)CC2 | < 0.0075 µM |  | < 0.0075 µM | > 75 µM | < 0.0075 µM |  | < 0.0075 µM | 0.0545 µM and < 0.0075 µM |  | > 75 µM | < 0.0075 µM | 0.0354 µM and < 0.0075 µM |  |  | < 0.0075 µM | > 75 µM | > 75 µM | 0.0637 µM | < 0.0075 µM |  |
| O=C(O)C[O][Sb][O]CC(=O)O | > 100 µM | > 100 µM | > 100 µM | > 100 µM | > 100 µM | > 100 µM | > 100 µM | > 100 µM | > 100 µM | > 100 µM |  |  | > 100 µM | > 100 µM | > 100 µM | > 100 µM | > 100 µM | > 100 µM | > 100 µM | > 100 µM |
| CCOC(=O)C(Cc1ccccc1)NC(=O)OC(C)(C)C (stereo not drawn) |  | > 100 µM |  | > 100 µM |  | > 100 µM |  |  |  |  |  | > 100 µM |  | > 100 µM |  | > 100 µM |  | > 100 µM |  |  |
| N#Cc1cccc(/C=C(/C(=O)c2ccccc2)c2ccccc2)c1 | 3.06 µM | 11.3 µM | 3.99 µM | 13.5 µM | 4.05 µM | 20.8 µM | 6.45 µM | 26.7 µM | 6.35 µM | 20.3 µM | 5.55 µM | 18.4 µM | 5.35 µM | 19.1 µM | 5.07 µM | 19.9 µM |  | 24.6 µM |  | 4.1 µM |
| CCc1ccc(Nc2cc(=O)[nH]c(=S)n2C)cc1 |  | > 100 µM |  | > 100 µM |  | > 100 µM |  | > 100 µM |  | > 100 µM |  | > 100 µM |  |  |  | > 100 µM | > 100 µM | > 100 µM |  |  |
| O=C(NC(=S)NNC(=S)NNc1ccccc1)c1ccccc1 | 4.05 µM | > 100 µM | 4.7 µM | > 100 µM | 7.45 µM | 55.6 µM | 4.62 µM | > 100 µM | 11 µM | > 100 µM | 3.94 µM | 44.1 µM | 10.6 µM | > 100 µM | 13 µM | > 100 µM |  |  |  |  |
| NC(=S)NNC(=O)CCC(=O)Nc1ccc(Cl)cc1Cl |  | > 100 µM |  | > 100 µM |  | > 100 µM |  | > 100 µM |  | > 100 µM |  | > 100 µM |  | > 100 µM |  | > 100 µM |  | > 100 µM |  |  |
| O=C1c2cc3c(cc2[C@@H]2[C@H]1c1ccc([N+](=O)[O-])cc1C(=O)N2CCCCl)OCO3 | < 0.01 µM | 15.7 µM | < 0.01 µM |  | < 0.01 µM | < 0.01 µM | < 0.01 µM | 0.136 µM | 0.151 µM | > 100 µM | < 0.01 µM |  |  |  | < 0.0139 µM | > 100 µM | > 100 µM | < 0.0171 µM | < 0.01 µM | < 0.01 µM |
| CC(=O)OC1CCC2(C)C(CCC3C4CC=C(C(C)=O)C4(C)OC(=O)CC32)C1 (stereo not drawn) | 1.13 µM | 2.62 µM | 4.06 µM | 14.7 µM | 1.71 µM | 3.51 µM | 1.95 µM | 4.32 µM | 1.7 µM | 3.31 µM | 1.8 µM | 3.55 µM | 1.74 µM | 3.27 µM | 13.3 µM | 27.9 µM |  | 3.53 µM |  | 1.72 µM |
| Cc1ncc(C(=O)Nc2ccc(CN3CCN(C)CC3)c(C(F)(F)F)c2)cc1C#Cc1cnc(N)c2ncccc12 | 0.218 µM | 2.4 µM | 0.704 µM | 11.9 µM |  |  | 0.293 µM | 24.3 µM |  |  | 1.12 µM | 2.59 µM | 0.056 µM | 1.49 µM | 2.16 µM | 5.33 µM | 3.62 µM | 1.31 µM | 1.27 µM | 0.0276 µM |
| CCN(CC)CCCOc1cc(O)c2c(=O)cc(-c3ccccc3)oc2c1 |  |  | 5.29 µM | 19.4 µM |  |  | 13.6 µM | 29.7 µM | 5.94 µM | 25.1 µM | 6.65 µM | 19.5 µM | 3.42 µM | 17 µM | 12.1 µM | 24.5 µM | 26.4 µM | 12.7 µM | 13.2 µM | 3.89 µM |
| O=C1OC(C2=CC(=O)c3ccccc3C2=O)C(Cl)=C1Cl (stereo not drawn) |  | > 100 µM |  | > 100 µM |  | > 100 µM |  | 95.3 µM |  |  |  | 72.7 µM |  | 96.2 µM |  | > 100 µM | > 100 µM | 39.5 µM |  |  |
| COc1cc2ccnc(-c3c4ccccc4c(N)c4c(OC)c(OC)ccc34)c2cc1OC |  |  |  | 14.9 µM |  |  |  | 5.66 µM |  | 11.7 µM |  | 4.6 µM |  | 6.92 µM |  | 15.4 µM | 24.2 µM | 10.1 µM |  |  |
| Nc1ncnc2c(C3OC(CO)C(O)C3O)scc12 (stereo not drawn) |  | 1.12 µM and 2.72 µM | 0.12 µM | 2.02 µM and 3.02 µM |  | 0.217 µM and 0.277 µM |  | 0.731 µM |  | 2.24 µM and 0.746 µM |  |  | 1.2 µM | 2.64 µM and 7.04 µM | 4.92 µM | 65.6 µM | 4.29 µM |  | 0.269 µM |  |
| COc1ccc(/C=C/C(=O)c2ccc3cc(OC)c(OC)cc3c2)cc1OC | 2.64 µM | > 100 µM | 3.92 µM | 22.1 µM | 5.47 µM | 21 µM | 2.97 µM | 13.5 µM | 3.5 µM | 36.7 µM | 2.94 µM | 10.4 µM | 11.2 µM | 32.3 µM | 5.29 µM | 29.8 µM |  | 16.9 µM |  | 3.71 µM |
| O=Cc1ccc(Oc2c3ccccc3nc3occc23)cc1 | 15.3 µM | 28.7 µM | 14.8 µM | 37.9 µM | 15.9 µM | 30.3 µM |  |  | 15.8 µM | 52.9 µM | 18.2 µM | 37.5 µM | 17.9 µM | 34.3 µM | 28.8 µM | > 100 µM |  | 30.4 µM |  | 13.1 µM |
| OCCNc1ncnc2c1ncn2C1OC(CO)C(O)C1O (stereo not drawn) |  | > 100 µM |  | > 100 µM |  | > 100 µM |  |  |  | > 100 µM |  | > 100 µM |  | > 100 µM |  | > 100 µM | > 100 µM | > 100 µM |  |  |
| CCC1(C(=O)OC)CCc2c(OC)ccc(OC)c2C1=O (stereo not drawn) |  | > 100 µM |  | > 100 µM |  | > 100 µM |  |  |  | > 100 µM |  | > 100 µM |  | > 100 µM |  | > 100 µM | > 100 µM | > 100 µM |  |  |
